This is an account of results in US9751854B2 (Millennium Pharmaceuticals, Inc., priority 2014, dated 2017).

Structures are written as SMILES. Where only a bound is given, the exact number is not on record here.

Sequence of human VPS34 (Q8NEB9 whole entry): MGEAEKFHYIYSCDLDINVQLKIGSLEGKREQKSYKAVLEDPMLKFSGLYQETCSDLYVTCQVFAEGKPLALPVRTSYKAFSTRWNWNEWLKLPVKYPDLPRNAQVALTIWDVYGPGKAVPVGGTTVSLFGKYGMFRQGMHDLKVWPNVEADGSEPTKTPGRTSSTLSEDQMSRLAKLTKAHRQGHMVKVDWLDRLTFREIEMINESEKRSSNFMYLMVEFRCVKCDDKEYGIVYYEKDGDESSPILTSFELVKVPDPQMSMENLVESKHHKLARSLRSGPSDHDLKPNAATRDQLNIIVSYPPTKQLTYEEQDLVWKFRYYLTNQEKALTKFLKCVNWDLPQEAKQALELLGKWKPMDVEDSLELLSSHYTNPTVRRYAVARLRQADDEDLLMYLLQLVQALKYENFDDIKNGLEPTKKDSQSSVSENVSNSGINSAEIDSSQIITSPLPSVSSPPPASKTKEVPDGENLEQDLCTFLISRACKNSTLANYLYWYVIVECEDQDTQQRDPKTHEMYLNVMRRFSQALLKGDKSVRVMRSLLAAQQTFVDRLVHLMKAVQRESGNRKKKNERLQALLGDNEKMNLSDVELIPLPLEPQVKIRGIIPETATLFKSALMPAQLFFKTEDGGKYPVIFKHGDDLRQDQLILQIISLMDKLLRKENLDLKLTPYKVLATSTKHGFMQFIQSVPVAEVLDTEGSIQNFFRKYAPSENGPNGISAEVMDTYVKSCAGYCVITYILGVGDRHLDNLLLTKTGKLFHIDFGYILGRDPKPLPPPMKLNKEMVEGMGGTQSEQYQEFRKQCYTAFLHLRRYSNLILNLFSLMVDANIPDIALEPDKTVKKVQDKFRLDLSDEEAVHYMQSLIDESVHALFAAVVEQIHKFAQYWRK

One experiment has as its target human VPS34 (Homo sapiens (Human), UniProt Q8NEB9). Briefly: Human VPS34 enzyme assay (Adapta TR-FRET ADP detection). The format is biochemical. Also on record: Percent Inhibition: dose or concentration left out as unconfirmed.
Conditions: not given
(Time-resolved FRET reads energy transfer from a long-lived donor to a nearby acceptor.)
With `CC(=O)Nc1cc(-c2cc(N(C)S(C)(=O)=O)c(C)[n+]([O-])c2)ccn1` [Compound I-129, N-(4-{6-methyl-5-[methyl(methylsulfonyl)amino]-1-oxidopyridin-3-yl}pyridin-2-yl)acetamide], the “Percent Inhibition” value is listed as 100%.

For the compound `CC(=O)Nc1cc(-c2cnc(C)c(NS(=O)(=O)c3nccn3C)c2)ccn1` [Compound I-92], the “Percent Inhibition” value was greater than 99%.

Staying with this experiment, now noted: IC50 range class.
In turn, `CC(=O)Nc1cc(-c2cnc(C)c(NS(=O)(=O)c3cccc(C)c3F)c2)ccn1` [Compound I-339, N-(5-{[(2-fluoro-3-methylphenyl)sulfonyl]amino}-6-methyl-3,4′-bipyridin-2′-yl)acetamide] showed an IC50 of 0.01 to 0.05 µM.

Take `CC(=O)Nc1cc(-c2cnc(C)c(OS(=O)(=O)c3ccc(F)cc3F)c2)ccn1` [Compound I-478, 2′-acetamido-6-methyl-3,4′-bipyridin-5-yl 2,4-difluorobenzenesulfonate]: the half-inhibitory concentration (IC50) fell in the range of 0.01 to 0.05 µM.

Regarding `CC(=O)Nc1cc(-c2cc(N(C)S(C)(=O)=O)c(C)[n+]([O-])c2)ccn1` [Compound I-129, N-(4-{6-methyl-5-[methyl(methylsulfonyl)amino]-1-oxidopyridin-3-yl}pyridin-2-yl)acetamide], the IC50 is greater than 0.1 µM.

As for `Cc1nccc(Nc2cc(-c3cnc(C)c(OCCO)c3)ccn2)n1` [Compound I-424, 2-({6-methyl-2′-[(2-methylpyrimidin-4-yl)amino]-3,4′-bipyridin-5-yl}oxy)ethanol], the IC50 fell in the range of 0.01 to 0.05 µM.

For `CC(=O)Nc1cc(-c2cnc3[nH]cc(S(=O)(=O)N(C)C)c3c2)ccn1` [Compound I-40, N-{4-[3-(dimethylsulfamoyl)-1H-pyrrolo[2,3-b]pyridin-5-yl]pyridin-2-yl}acetamide], the IC50 is less than 0.01 µM.

In turn, `CC(=O)Nc1cc(-c2cnc(C)c(N(C)S(=O)(=O)c3ccccc3)c2)ccn1` [Compound I-46, N-{6-methyl-5-[methyl(phenylsulfonyl)amino]-3,4′-bipyridin-2′-yl}acetamide] displayed an IC50 of 0.01 to 0.05 µM.

Consider `CCCCS(=O)(=O)Nc1cc(-c2ccnc(NC(C)=O)c2)cnc1C` [Compound I-373, N-{5-[(butylsulfonyl)amino]-6-methyl-3,4′-bipyridin-2′-yl}acetamide], for which the IC50 was 0.01 to 0.05 µM.

On to `CC(=O)Nc1cc(-c2cnc(C)c(NS(=O)(=O)c3ccc(Cl)cc3Cl)c2)ccn1` [Compound I-30, N-(5-{[(2,4-dichlorophenyl)sulfonyl]amino}-6-methyl-3,4′-bipyridin-2′-yl)acetamide], for which the IC50 was less than 0.01 µM.

Regarding `CC(=O)Nc1cc(-c2cc(S(C)(=O)=O)c[n+]([O-])c2)ccn1` [Compound I-191, N-{4-[5-(methylsulfonyl)-1-oxidopyridin-3-yl]pyridin-2-yl}acetamide], the IC50 was greater than 0.1 µM.

`COC(=O)Nc1cc(-c2cnc3[nH]ncc3c2)ccn1` [Compound I-38, Methyl [4-(1H-pyrazolo[3,4-b]pyridin-5-yl)pyridin-2-yl]carbamate] returned an IC50 of 0.01 to 0.05 µM.

For the compound `CC(=O)Nc1cc(-c2cnc(Cl)c(NS(=O)(=O)N(C)C)c2C)ccn1` [Compound I-236, N-{6-chloro-5-[(dimethylsulfamoyl)amino]-4-methyl-3,4′-bipyridin-2′-yl}acetamide], the IC50 is 0.01 to 0.05 µM.

Compound `CC(=O)Nc1cc(-c2cncc(N(CC3CC3)S(C)(=O)=O)c2)ccn1` [Compound I-202, N-{5-[(cyclopropylmethyl)(methylsulfonyl)amino]-3,4′-bipyridin-2′-yl}acetamide] returned a concentration for half-maximal inhibition (IC50) of 0.05 to 0.1 µM.

The compound `CC(=O)Nc1cc(-c2cnc(C)c(N3CCN(C)S3(=O)=O)c2)ccn1` [Compound I-386, N-[6-methyl-5-(5-methyl-1,1-dioxido-1,2,5-thiadiazolidin-2-yl)-3,4′-bipyridin-2′-yl]acetamide] showed an IC50 of 0.01 to 0.05 µM.

Compound `CC(=O)Nc1cc(-c2cncc(C(=O)C3CC3)c2)ccn1` [Compound I-8, N-[5-(cyclopropylcarbonyl)-3,4′-bipyridin-2′-yl]acetamide] came in with an IC50 greater than 0.1 µM.

On to `CC(=O)Nc1cc(-c2cnc(C)c(NS(=O)(=O)c3ccc(C(F)(F)F)cc3Cl)c2)ccn1` [Compound I-196, N-[5-({[2-chloro-4-(trifluoromethyl)phenyl]sulfonyl}amino)-6-methyl-3,4′-bipyridin-2′-yl]acetamide], for which the IC50 is less than 0.01 µM.

For the compound `CNC(=O)c1cc(-c2ccnc(NC(C)=O)c2)cnc1N` [Compound I-57, 2′-acetamido-6-amino-N-methyl-3,4′-bipyridine-5-carboxamide], the IC50 was in the range of 0.01 to 0.05 µM.

As to `CC(=O)Nc1cc(-c2cncc(C(=O)N(C)C)c2)ccn1` [Compound I-48, 2′-acetamido-N,N-dimethyl-3,4′-bipyridine-5-carboxamide], the IC50 is greater than 0.1 µM.

Consider `CC(=O)Nc1cc(-c2cnc(C)c(NS(=O)(=O)c3cccc(F)c3)c2)ccn1` [Compound I-155, N-(5-{[(3-fluorophenyl)sulfonyl]amino}-6-methyl-3,4′-bipyridin-2′-yl)acetamide], for which the IC50 is less than 0.01 µM.

`CC(=O)Nc1cc(-c2cnc(C)c(NS(=O)(=O)c3ccc(C(F)(F)F)nc3)c2)ccn1` [Compound I-1]: the half-maximal inhibitory concentration (IC50) was less than 0.01 µM.

In turn, `CC(=O)Nc1cc(-c2cncc(N(C)S(C)(=O)=O)c2)ccn1` [Compound I-20, N-{5-[methyl(methylsulfonyl)amino]-3,4′-bipyridin-2′-yl}acetamide] had an IC50 of 0.05 to 0.1 µM.

`CC(=O)Nc1cc(-c2cnc(N)c(S(=O)(=O)N3CCCCC3)c2)ccn1` [Compound I-156, N-[6-amino-5-(piperidin-1-ylsulfonyl)-3,4′-bipyridin-2′-yl]acetamide] returned an IC50 of less than 0.01 µM.

For the compound `CC(=O)Nc1cc(-c2cncc(N(CCO)S(=O)(=O)c3ccc(F)cc3F)c2)ccn1` [Compound I-384, N-(5-{[(2,4-difluorophenyl)sulfonyl](2-hydroxyethyl)amino}-3,4′-bipyridin-2′-yl)acetamide], the 50% inhibitory concentration (IC50) is greater than 0.1 µM.

Take `CC(=O)Nc1cc(-c2cnc(C)c(NS(=O)(=O)c3ccc(C(F)(F)F)cc3)c2)ccn1` [Compound I-90, N-[6-methyl-5-({[4-trifluoromethyl)phenyl]sulfonyl}amino-3,4′-bipyridin-2′-yl]acetamide]: the IC50 was less than 0.01 µM.

`Cc1c(-c2ccnc(Nc3ccnc(C4CC4)n3)c2)cnc(Cl)c1NS(=O)(=O)c1ccc(F)cc1F` [Compound I-296, N-{6-chloro-2′-[(2-cyclopropylpyrimidin-4-yl)amino]-4-methyl-3,4′-bipyridin-5-yl}-2,4-difluorobenzenesulfonamide] yielded an IC50 of 0.01 to 0.05 µM.

For `CC(=O)Nc1cc(-c2cnc(C)c(NS(=O)(=O)N3CCCCC3)c2)ccn1` [Compound I-214, N-{6-methyl-5-[(piperidin-1-ylsulfonyl)amino]-3,4′-bipyridin-2′-yl}acetamide], the IC50 is less than 0.01 µM.

`CC(=O)Nc1cc(-c2cnc(C)c(N(C)S(C)(=O)=O)c2)ccn1` [Compound I-96, N-{6-methyl-5-[methyl(methylsulfonyl)amino]-3,4′-bipyridin-2′-yl}acetamide] returned an IC50 of 0.01 to 0.05 µM.

`Cc1nccc(Nc2cc(-c3cnc(C)c(C(=O)N(C)c4ccc(F)cc4F)c3)ccn2)n1` [Compound I-346, N-(2,4-difluorophenyl)-N,6-dimethyl-2′-[(2-methylpyrimidin-4-yl)amino]-3,4′-bipyridine-5-carboxamide] had an IC50 of 0.01 to 0.05 µM.

As for `CC(=O)Nc1cc(-c2cnc(N)c(S(=O)(=O)O)c2)ccn1` [Compound I-122, 2′-acetamido-6-amino-3,4′-bipyridine-5-sulfonic acid], the IC50 was in the range of 0.05 to 0.1 µM.

As for `COc1ncc(-c2ccnc(NC(C)=O)c2)c(C)c1NS(=O)(=O)c1ccc(F)cc1F` [Compound I-248, N-(5-{[(2,4-difluorophenyl)sulfonyl]amino}-6-methoxy-4-methyl-3,4′-bipyridin-2′-yl)acetamide], the IC50 fell in the range of 0.01 to 0.05 µM.

Regarding `CC(=O)Nc1cc(-c2cnc3[nH]cc(S(=O)(=O)N4CCN(C)CC4)c3c2)ccn1` [Compound I-103, N-(4-{3-[(4-methylpiperazin-1-yl)sulfonyl]-1H-pyrrolo[2,3-b]pyridin-5-yl]pyridin-2-yl)acetamide], the IC50 is less than 0.01 µM.

The compound `COC(=O)Nc1cc(-c2cnc(C)c(NS(=O)(=O)c3ccc(F)cc3F)c2)ccn1` [Compound I-195, methyl (5-{[(2,4-difluorophenyl)sulfonyl]amino}-6-methyl-3,4′-bipyridin-2′-yl)carbamate] registered an IC50 of less than 0.01 µM.

Compound `CC(=O)Nc1cc(-c2cnc(C)c(NS(=O)(=O)c3cccc(F)c3F)c2)ccn1` [Compound I-377, N-(5-{[(2,3-difluorophenyl)sulfonyl]amino}-6-methyl-3,4′-bipyridin-2′-yl)acetamide] had an IC50 of 0.01 to 0.05 µM.

With `CC(=O)Nc1cc(-c2cnc(Cl)c(C(=O)N3CCC3)c2)c(C)cn1` [Compound I-434, N-[5-(azetidin-1-ylcarbonyl)-6-chloro-5′-methyl-3,4′-bipyridin-2′-yl]acetamide], the IC50 was greater than 0.1 µM.

Compound `CC(=O)Nc1cc(-c2cncc(S(=O)(=O)NC34CC(C3)C4)c2)ccn1` [Compound I-190, N-[5-(bicyclo[1.1.1]pent-1-ylsulfamoyl)-3,4′-bipyridin-2′-yl]acetamide] gave a half-maximal inhibitory concentration (IC50) of 0.01 to 0.05 µM.

As for `CC(=O)Nc1cc(-c2cnc(C)c(NS(=O)(=O)c3cccc(C(F)(F)F)c3)c2)ccn1` [Compound I-168, N-[6-methyl-5-({[3-(trifluoromethyl)phenyl]sulfonyl}amino)-3,4′-bipyridin-2′-yl]acetamide], the IC50 is less than 0.01 µM.

`CC(=O)Nc1cc(-c2cnc3c(c2)S(=O)(=O)NCCO3)ccn1` [Compound I-484, N-(4-(1,1-dioxido-3,4-dihydro-2H-pyrido[2,3-b][1,4,5]oxathiazepin-8-yl)pyridin-2-yl)acetamide]: the concentration for half-maximal inhibition (IC50) lay in the range of 0.05 to 0.1 µM.

For the compound `Cc1ncc(-c2ccnc(NC(=O)C3CC3(F)F)c2)cc1NS(=O)(=O)c1ccc(F)cc1F` (racemic) [Compound I-16, (rac)-N-(5-{[(2,4-difluorophenyl)sulfonyl]amino}-6-methyl-3,4′-bipyridin-2′-yl)-2,2-difluorocyclopropanecarboxamide], the IC50 is less than 0.01 µM.

Compound `Cc1ncc(-c2ccnc(NC(=O)C3CC3)c2)cc1NS(=O)(=O)c1ccc(Cl)cc1F` [Compound I-433, N-(5-{[(4-chloro-2-fluorophenyl)sulfonyl]amino}-6-methyl-3,4′-bipyridin-2′-yl)cyclopropanecarboxamide] returned an IC50 of 0.01 to 0.05 µM.

One may read the IC50 as the point on the concentration scale where inhibition reaches its midpoint.
